The source made the active and inactive calls. The rule behind the calls is not given here.
Tests used:
Saccharomyces cerevisiae [1] = assay: Antifungal activity against Saccharomyces cerevisiae W303 pdr5 deletion mutant assessed as reduction in microbial growth at 0.5 uM after 2 to 3 days; type: functional, organism-based; details: time day 2-3
Saccharomyces cerevisiae [2] = assay: Growth inhibition of Saccharomyces cerevisiae W303 at 0.5 uM after 2 to 3 days in glycerol condition relative to control; type: functional; details: time day 2-3, read-out: GI
Saccharomyces cerevisiae [3] = assay: Growth inhibition of Saccharomyces cerevisiae W303 at 0.5 uM after 2 to 3 days in ammonium iron(II) sulfate condition; type: functional, organism-based; details: time day 2-3
[4] = test system: Saccharomyces cerevisiae W303; assay: Inhibition of V-ATpase in Saccharomyces cerevisiae W303 assessed as quinacrine accumulation in the cytosol at 0.5 uM after 4 hrs by fluorescence microscopic method; type: subcellular
[5] = test system: Saccharomyces cerevisiae W303; assay: Inhibition of V-ATpase in Saccharomyces cerevisiae W303 pdr5 deletion mutant assessed as quinacrine accumulation in the cytosol at 0.5 uM after 4 hrs by fluorescence microscopic method; type: subcellular
[6] = Inhibition of V-ATpase in Saccharomyces cerevisiae […] vacuolar membranes after 10 mins by spectrophotometric based coupled enzyme assay; type: cell membranes, Saccharomyces cerevisiae W303, Membrane
Saccharomyces cerevisiae [7] = assay: Growth inhibition of Saccharomyces cerevisiae W303 pdr5 deletion mutant at 0.5 uM after 2 to 3 days in ammonium iron(II) sulfate condition; type: functional, organism-based; details: time day 2-3
Saccharomyces cerevisiae [8] = assay: Inhibition of V-ATpase in Saccharomyces cerevisiae BY4742 vacuolar membranes at 100 nM after 10 mins by spectrophotometric based coupled enzyme assay relative to control; type: cell membranes; details: Membrane
Saccharomyces cerevisiae [9] = assay: Growth inhibition of Saccharomyces cerevisiae W303 pdr5 deletion mutant at 0.5 uM after 2 to 3 days in glycerol condition relative to control; type: functional; details: time day 2-3, read-out: GI
Saccharomyces cerevisiae [10] = assay: Growth inhibition of Saccharomyces cerevisiae W303 pdr5 deletion mutant at 10 uM after 2 to 3 days in ammonium iron(II) sulfate condition; type: functional, organism-based; details: time day 2-3
Saccharomyces cerevisiae [11] = assay: Growth inhibition of Saccharomyces cerevisiae W303 at 10 uM after 2 to 3 days in ammonium iron(II) sulfate condition; type: functional, organism-based; details: time day 2-3
Saccharomyces cerevisiae [12] = assay: Growth inhibition of Saccharomyces cerevisiae W303 pdr5 deletion mutant at 10 uM after 2 to 3 days in glycerol condition relative to control; type: functional; details: time day 2-3, read-out: GI
[13] = test system: Saccharomyces cerevisiae W303; assay: Inhibition of V-ATpase in Saccharomyces cerevisiae W303 pdr5 deletion mutant assessed as quinacrine accumulation in the cytosol at 10 uM after 4 hrs by fluorescence microscopic method; type: subcellular
Jurkat [14] = assay: Cytotoxicity against human Jurkat cells assessed as reduction in cell viability; type: functional, cell-based
[15] = test system: Saccharomyces cerevisiae W303; assay: Inhibition of V-ATpase in Saccharomyces cerevisiae […] vacuolar membranes at 80 nM after 10 mins by spectrophotometric based coupled enzyme assay; type: cell membranes; details: Membrane
Saccharomyces cerevisiae [16] = assay: Growth inhibition of Saccharomyces cerevisiae W303 at 0.5 to 10 uM after 2 to 3 days at pH 7.5 condition; type: functional, organism-based; details: dose microM 0.5-10, time day 2-3
Saccharomyces cerevisiae [17] = assay: Antifungal activity against Saccharomyces cerevisiae W303 assessed as reduction in microbial growth at 10 uM after 2 to 3 days; type: functional, organism-based; details: time day 2-3
[18] = test system: Saccharomyces cerevisiae W303; assay: Inhibition of V-ATpase in Saccharomyces cerevisiae W303 assessed as quinacrine accumulation in the cytosol at 10 uM after 4 hrs by fluorescence microscopic method; type: subcellular
Jurkat [19] = assay: Cytotoxicity against human Jurkat cells assessed as reduction in cell viability in presence of pan-caspase inhibitor Z-VAD-FMK relative to control; type: functional
Saccharomyces cerevisiae [20] = assay: Growth inhibition of Saccharomyces cerevisiae W303 at 0.5 to 10 uM after 2 to 3 days at pH 5 condition; type: functional, organism-based; details: dose microM 0.5-10, time day 2-3
Saccharomyces cerevisiae [21] = assay: Growth inhibition of Saccharomyces cerevisiae W303 pdr5 deletion mutant at 0.5 to 10 uM after 2 to 3 days at pH 7.5 condition; type: functional, organism-based; details: dose microM 0.5-10, time day 2-3
Saccharomyces cerevisiae [22] = assay: Growth inhibition of Saccharomyces cerevisiae W303 at 10 uM after 2 to 3 days in glycerol condition relative to control; type: functional; details: time day 2-3, read-out: GI
Saccharomyces cerevisiae [23] = assay: Growth inhibition of Saccharomyces cerevisiae W303 pdr5 deletion mutant at 0.5 to 10 uM after 2 to 3 days at pH 5 condition; type: functional, organism-based; details: dose microM 0.5-10, time day 2-3

Q: For `C/C=C/[C@H]1O[C@@](O)([C@@H](C)[C@H](O)[C@H](C)[C@H]2OC(=O)/C(OC)=C/C(C)=C/[C@@H](C)[C@@H](O)[C@@H](CC)[C@@H](O)[C@H](C)C/C(C)=C/C=C/[C@@H]2OC)C[C@@H](O[C@H]2C[C@@H](O)[C@H](OC(N)=O)[C@@H](C)O2)[C@@H]1C` [CONCANAMYCIN A], which Activity (Saccharomyces cerevisiae [1]) is on record?
A: Active

Q: And the inhibition of growth at 0.5 µM (Saccharomyces cerevisiae [2])?
A: 100%

Q: And the “growth inhibition (GI)” value (Saccharomyces cerevisiae [3])?
A: inactive

Q: And the inhibition [4]?
A: Active

Q: And the inhibition [5]?
A: Active

Q: And the IC50 [6]?
A: 3 nM

Q: And the “growth inhibition (GI)” value (Saccharomyces cerevisiae [7])?
A: inactive

Q: What about the inhibition (Saccharomyces cerevisiae [8]) of the same molecule?
A: 75%

Q: And the inhibition of growth at 0.5 µM (Saccharomyces cerevisiae [9])?
A: 100%

Q: For `CO/C1=C\C(C)=C\[C@@H](C)[C@@H](O)[C@@H](C)C/C(C)=C/C=C/[C@H](OC)[C@@H]([C@@H](C)[C@@H](O)[C@H](C)[C@@]2(O)C[C@@H](O)[C@H](C)[C@@H](C(C)C)O2)OC1=O` [BAFILOMYCIN A1], which IC50 [6] is on record?
A: 4 nM

Q: Which “growth inhibition (GI)” value (Saccharomyces cerevisiae [10]) does the source give for `C[C@@H]1C/C=C\C(=O)O[C@H](/C=C/C#C/C=C/C(C)(C)[C@@H](O)c2cccc(O)c2Br)[C@@H](C)/C=C/[C@H](C)C[C@H](OC(N)=O)C1` here?
A: inactive

Q: What about the “growth inhibition (GI)” value (Saccharomyces cerevisiae [11]) of the same molecule?
A: inactive

Q: And the Activity (Saccharomyces cerevisiae [1])?
A: Active

Q: And the inhibition of growth at 10 µM (Saccharomyces cerevisiae [12])?
A: 100%

Q: What about the inhibition [13] of the same molecule?
A: Active

Q: What about the IC50 (Jurkat [14]) of the same molecule?
A: 43 nM

Q: What about the inhibition [15] of the same molecule?
A: Active

Q: And the “growth inhibition (GI)” value (Saccharomyces cerevisiae [16])?
A: Active

Q: And the Activity (Saccharomyces cerevisiae [17])?
A: Active

Q: What about the inhibition [18] of the same molecule?
A: Active

Q: And the Activity (Jurkat [19])?
A: <3%

Q: What about the “growth inhibition (GI)” value (Saccharomyces cerevisiae [20]) of the same molecule?
A: Active

Q: What about the “growth inhibition (GI)” value (Saccharomyces cerevisiae [21]) of the same molecule?
A: Active

Q: And the IC50 [6]?
A: 9.91 nM

Q: What about the inhibition of growth at 10 µM (Saccharomyces cerevisiae [22]) of the same molecule?
A: 100%

Q: And the “growth inhibition (GI)” value (Saccharomyces cerevisiae [23])?
A: Active

Q: Which IC50 (Jurkat [14]) does the source give for `C[C@@H]1C/C=C/C(=O)O[C@H](/C=C/C#C/C=C/C(C)(C)[C@@H](O)c2cccc(O)c2Br)[C@@H](C)/C=C/[C@H](C)C[C@H](OC(N)=O)C1` here?
A: 115 nM
